Experimental data published in publication PMC12114812 (Pharmaceutics, 2025).
In brackets after ≈: the same amount, converted by molar mass. Read-outs that look alike come from different tables or passages of the source.

How the values were obtained:
physchem = format: physicochemical; conditions: I = 0.15 M, 25 °C, standard deviation in parenthesis
Method: The pKa and logPo/w determinations were performed using the SiriusT3 titrator (Pion Inc.). The titrations were carried out from pH 12.0 to 2.0 due to the acidic nature of the drugs, at an ionic strength of 0.15 M (KCl), under an argon atmosphere and controlled temperature (25.0 ± 0.1 °C).
Octanol–water partition values, logPo/w, were obtained by potentiometric titrations in the presence of octanol at concentrations between 1.4 mM and 0.4 mM.

[1] = CheqSol potentiometric intrinsic solubility and supersaturation; format: physicochemical; conditions: for pH range in which the drug precipitated from solution: CheqSol titration from pH 12.0 to low pH, with and without excipients; for time of supersaturation: with hydrophilic excipients; for ts, time of supersaturation: drug:excipient 1:1; for ts, time of supersaturation / solubility: 0.17 M KCl; for Rs, supersaturation ratio: Rs = Cmax/S0, S0 of the API in a medium without excipients; for solubility: aqueous titration solution, without excipient
Description: For the determination of the intrinsic solubility using the potentiometric method, two events must happen: First, the compound must be fully dissolved at the beginning of the titration. Second, the precipitation of the compound from the solution should occur close to the equivalent point of the titration curve. The amount of compound used in a CheqSol determination must be enough to achieve both events. […] All titrations started at pH 12.0, where the compounds were ionized and titrated to a low pH to force precipitation. […] At this point, the sample existed in a supersaturated or subsaturated state (i.e., chase equilibrium). The change between the subsaturated and supersaturated states was repeated several times to determine the intrinsic solubility by calculating the pH by interpolation between the two saturated states. The intrinsic solubility was calculated using the principles of mass and charge balance at the pH at which the equilibrium of the system was reached.
The CheqSol method not only provides the thermodynamic solubility of the neutral form (S0) of an ionizable compound but also the extent and time that a solution remains supersaturated before reaching S0. Both parameters are used to evaluate the supersaturation of a compound [10]. In this method, the experiment starts in conditions where the drug is completely ionized, and so, fully dissolved. Therefore, the concentration of the neutral species in solution is “zero”. The titration begins by titrating towards the pKa of the drug, to force precipitation as the neutral species starts to form. During this process, the concentration of the neutral species in solution increases to a maximum (Cmax) before the drug precipitates. When precipitation starts, it decreases dramatically to a much lower concentration to reach the intrinsic solubility. It must be noted that, before the drug precipitates, the solution is supersaturated. […] The supersaturation parameters can be obtained from the plot that monitors the concentration of neutral species in solution against time. […] The extent of the supersaturation corresponds to the maximum concentration of the neutral species in solution (Cmax) before the drug precipitates, and the duration of the supersaturation (ts) is the amount of time that the drug stays supersaturated until it reaches equilibrium solubility. In addition, the supersaturation ratio (Rs) can be calculated by dividing Cmax by the intrinsic solubility (S0).

[2] = Ionization degree at the studied pH according to pKa; format: physicochemical
Method: Therefore, this pH value was also included in the study. […] When the solubility of the free drugs (without excipients) is evaluated, it can be observed that the intrinsic solubility is in agreement with their hydrophobicity (Table 1). […] Benzthiazide has an intermediate solubility. Moreover, as expected, the solubility of the compounds increases with the ionization degree. […] Here, a slight increase is observed.

[3] = parameters: method as in PMID 29481859; conditions: I = 0.15 M, 25 °C; cited from earlier work
[4] = Shake-flask solubility with and without excipient (maleic/maleate buffers, HPLC quantification); format: physicochemical; conditions: 25 °C
Method: Prior to performing the solubility measurements, maleic/maleate buffers were prepared as follows: a stock solution containing 55 mM maleic acid, 126 mM sodium chloride, and 82 mM NaOH (conditions that mimic the fed state of the intestinal fluid) was made following the guidelines of Biorelevant. Final buffers at pH 2, 5.8, and 6.5 were prepared by the addition of HCl or NaOH to three different aliquots of the stock solution. […] The weighed amount must be enough to obtain saturated solutions, which depends on the sample and pH of the buffer used. The samples were shaken for 24 h at 25 ± 0.5 °C, with a pH control of the solutions after 4 h of shaking. […] After shaking for 24 h, the samples were allowed to equilibrate for an additional 24 h. Subsequently, the final pH was measured, and phase separation was carried out via centrifugation. […] The quantification of the supernatant was performed by liquid chromatography under isocratic conditions using methanol/10 mM phosphate buffer at pH 7.5 as the mobile phase. […] The flow rate was set at 1 mL/min, with an injection volume of 10 μL. […] If necessary, an appropriate dilution in water of the saturated supernatant was carried out to ensure its fit in the range of calibration. The effect of a given excipient on the solubility of a drug depends on both the nature of the compound and the nature of the excipient used. To evaluate if the enhancement in solubility is significant with respect to the solubility in water when the excipients are added, the criterion of twice the standard deviation (sd) was applied. […] This value was chosen because it corresponds to an average standard deviation obtained in our laboratory for shake-flask solubility determinations and it also agrees with typical sd reported in the literature.

[5] = pKa determination, spectrometric UV-metric titration (SiriusT3); format: physicochemical; conditions: aqueous 0.15 M KCl solution; I = 0.15 M, 25 °C; standard deviation in parenthesis; read-out: pKa (second value)
Method: The pKa and logPo/w determinations were performed using the SiriusT3 titrator (Pion Inc.). […] For the analysis, 5 μL of a 10 mM DMSO sample stock solution, and 25 μL of a 15 mM potassium phosphate buffer, were added to 1.5 mL of a 0.15 M KCl solution. The UV-metric titration method used the UV absorbance changes in the aromatic groups close to the ionizable groups of the substance as a function of pH [30]. […] Results are the mean value from four triple titrations.

[6] = CheqSol, 25 °C, standard deviation in parenthesis
[7] = standard deviation in parenthesis
[8] = thermodynamic from solid, CheqSol, 25 °C, standard deviation in parenthesis, read-out: log S0 (intrinsic solubility) (converted)
[9] = pH 2, Captisol, 1:1 excipient:API weight ratio
[10] = pH 2, Cavasol, 1:1 excipient:API weight ratio
[11] = pH 2, Klucel, 1:1 excipient:API weight ratio
[12] = pH 2, Kollidon, 1:1 excipient:API weight ratio
[13] = pH 2, S630, 1:1 excipient:API weight ratio
[14] = pH 5.8, Captisol, 1:1 excipient:API weight ratio
[15] = pH 5.8, Cavasol, 1:1 excipient:API weight ratio
[16] = pH 5.8, Klucel, 1:1 excipient:API weight ratio
[17] = pH 5.8, Kollidon, 1:1 excipient:API weight ratio
[18] = pH 5.8, S630, 1:1 excipient:API weight ratio
[19] = pH 6.5, Captisol, 1:1 excipient:API weight ratio
[20] = pH 6.5, Cavasol, 1:1 excipient:API weight ratio
[21] = pH 6.5, Klucel, 1:1 excipient:API weight ratio
[22] = pH 6.5, Kollidon, 1:1 excipient:API weight ratio
[23] = pH 6.5, S630, 1:1 excipient:API weight ratio

logP (physchem; octanol/water) | pH range in which the drug precipitated from solution [1] | time of supersaturation ([1]; CheqSol) | ts, time of supersaturation [1, 6] | Rs, supersaturation ratio [1, 7] | solubility [1, 8] [µM] | ionization degree ([2]; pH 6.5, anionic form) | SEXC/SAPI [4, 9] | SEXC/SAPI [4, 10] | SEXC/SAPI [4, 11] | SEXC/SAPI [4, 12] | SEXC/SAPI [4, 13] | SEXC/SAPI [4, 14] | SEXC/SAPI [4, 15] | SEXC/SAPI [4, 16] | SEXC/SAPI [4, 17] | SEXC/SAPI [4, 18] | SEXC/SAPI [4, 19] | SEXC/SAPI [4, 20] | SEXC/SAPI [4, 21] | SMILES | further results
1.89 | 6.6–8.7 pH | ~ 20 min | 6 (1) min | 4 (1) | 11.2 (≈ 4.85 µg/mL) | around 40% | 1.14 | 0.97 | 1.20 | 1.29 | 1.61 | 1.09 | 0.83 | 1.12 | 1.21 | 1.49 | 1.29 | 0.98 | 1.15 | NS(=O)(=O)c1cc2c(cc1Cl)N=C(CSCc1ccccc1)NS2(=O)=O [Benzthiazide] | Rs, fold higher ([1]; in the presence of klucel and plasdone S630): 40 fold; Rs, fold higher ([1]; in the presence of kollidon): 100 fold; pKa (first value) [3]: 6.64; pKa (second value) [3]: 9.22; SEXC/SAPI [4, 22]: 1.24; SEXC/SAPI [4, 23]: 1.28
2.99 | 3.7–6.7 pH | ~ 20 min | 11 (3) min | 48 (4) | 1.91 (≈ 0.639 µg/mL) | ~100% | 1.48 | 1.45 | 1.50 | 1.47 | 1.81 | 1.44 | 1.56 | 1.93 | 1.88 | 1.96 | 1.52 | 1.61 | 1.84 | Cc1cc(NC(=O)C2=C(O)c3ccccc3S(=O)(=O)N2C)no1 [Isoxicam] | time the initial metastable form is stabilized ([1]; CheqSol, in the presence of klucel): around 16 min; ts, time of supersaturation ([1]; CheqSol, 25 °C, standard deviation in parenthesis, listed as isoxicam): 11 min; Rs, supersaturation ratio ([1]; standard deviation in parenthesis, listed as isoxicam): 48; solubility ([1]; CheqSol, Figure 2A, read-out: Intrinsic solubility): 1.88 µM (≈ 0.63 µg/mL); ionization degree ([2]; pH 5.8, anionic form): fully ionized; ionization degree ([2]; pH 5.8, anionic form, listed as isoxicam): ~100%; SEXC/SAPI [4, 22]: 1.93; SEXC/SAPI [4, 23]: 1.73
– | 5.7–6.7 pH | ~ 10 min | 7 (1) min | – | 21.4 (≈ 7.08 µg/mL) | 96% | – | – | – | – | – | – | – | – | – | – | – | – | – | CN1C(C(=O)Nc2ccccn2)=C(O)c2ccccc2S1(=O)=O [Piroxicam] | pKa [5]: 5.34; logP (physchem): 1.71; ionization degree ([2]; pH 2, cationic form, positively charged): around 40%; ionization degree ([2]; pH 5.8, anionic form): 75%
